Details: mouse, plasma, 1 h, 10 µM

Going from `CC(C)c1cc(-c2nnc(O)n2-c2ccc(CN3CCN(C(=O)c4ccc(COC(=O)Nc5cccc6c5CN(C5CCC(=O)NC5=O)C6=O)cc4)CC3)c(F)c2)c(O)cc1O` (stereo not drawn) [SDC-TRAP-0157, 4-(4-(4-(3-(2,4-dihydroxy-5-isopropylphenyl)-5-hydroxy-4H-1,2,4-triazol-4-yl)-2-fluorobenzyl)piperazine-1-carbonyl)benzyl (2-(2,6-dioxopiperidin-3-yl)-1-oxoisoindolin-4-yl)carbamate] to `CC(C)c1cc(-c2nnc(O)n2-c2ccc(CN3CCN(C(=O)COC(=O)Nc4cccc5c4CN(C4CCC(=O)NC4=O)C5=O)CC3)cc2)c(O)cc1O` (stereo not drawn) [SDC-TRAP-0121, 2-(4-(4-(3-(2,4-dihydroxy-5-isopropylphenyl)-5-hydroxy-4H-1,2,4-triazol-4-yl)benzyl)piperazin-1-yl)-2-oxoethyl(2-(2,6-dioxopiperidin-3-yl)-1-oxoisoindolin-4-yl)carbamate], the “% Remaining (1 h)” value rises from 81.4% to 89.1%.

Going from `CCc1c2c(nc3ccc(O)cc13)-c1cc3c(c(=O)n1C2)COC(=O)C3(CC)OC(=O)N(C)CCCCN1CCN(Cc2ccc(-n3c(O)nnc3-c3cc(C(C)C)c(O)cc3O)cc2)CC1` (stereo not drawn) [SDC-TRAP-0055, 4,11-diethyl-9-hydroxy-3,14-dioxo-3,4,12,14-tetrahydro-1H-pyrano[3′,4′:6,7]indolizino[1,2-b]quinolin-4-yl (4-(4-(4-(3-(2,4-dihydroxy-5-isopropylphenyl)-5-hydroxy-4H-1,2,4-triazol-4-yl)benzyl)piperazin-1-yl)butyl)(methyl)carbamate] to `CCc1c2c(nc3ccc(OS(=O)(=O)c4cccc(C(=O)N5CCN(Cc6ccc(-n7c(O)nnc7-c7cc(C(C)C)c(O)cc7O)cc6)CC5)c4)cc13)-c1cc3c(c(=O)n1C2)COC(=O)C3(O)CC` (stereo not drawn) [SDC-TRAP-0389, 4,11-diethyl-4-hydroxy-3,14-dioxo-3,4,12,14-tetrahydro-1H-pyrano[3′,4′:6,7]indolizino[1,2-b]quinolin-9-yl 3-(4-(4-(3-(2,4-dihydroxy-5-isopropylphenyl)-5-hydroxy-4H-1,2,4-triazol-4-yl)benzyl)piperazine-1-carbonyl)benzenesulfonate], the “% Remaining (1 h)” value falls from 103% to 77.7%.

Compared with `COc1cc(O)c(-c2nnc(C(=O)NC(C)C)n2-c2ccc(CN3CCC(C(=O)Nc4cccc5c4CN(C4CCC(=O)NC4=O)C5=O)CC3)cc2)cc1C(C)C` (stereo not drawn) [SDC-TRAP-0115, N-(2-(2,6-dioxopiperidin-3-yl)-1-oxoisoindolin-4-yl)-1-(4-(3-(2-hydroxy-5-isopropyl-4-methoxyphenyl)-5-(isopropylcarbamoyl)-4H-1,2,4-triazol-4-yl)benzyl)piperidine-4-carboxamide], `CCNC(=O)c1nnc(-c2cc(C(C)C)c(O)cc2O)n1-c1ccc(CN2CCC(C(=O)N[C@H](C(=O)Nc3cccc4c3CN(C3CCC(=O)NC3=O)C4=O)C(C)C)CC2)cc1` (stereo partly drawn) [SDC-TRAP-0163, 1-(4-(3-(2,4-dihydroxy-5-isopropylphenyl)-5-(ethylcarbamoyl)-4H-1,2,4-triazol-4-yl)benzyl)-N-((2S)-1-((2-(2,6-dioxopiperidin-3-yl)-1-oxoisoindolin-4-yl)amino)-3-methyl-1-oxobutan-2-yl)piperidine-4-carboxamide] is higher in “% Remaining (1 h)” value: 85.9% for the first, 93.0% for the second.

Going from `CCNC(=O)c1nnc(-c2cc(C(C)C)c(O)cc2O)n1-c1ccc(CN2CCC(C(=O)N3CCC(COC(=O)Nc4cccc5c4CN(C4CCC(=O)NC4=O)C5=O)CC3)CC2)cc1` (stereo not drawn) [SDC-TRAP-0124, (1-(1-(4-(3-(2,4-Dihydroxy-5-isopropylphenyl)-5-(ethylcarbamoyl)-4H-1,2,4-triazol-4-yl)benzyl)piperidine-4-carbonyl)piperidin-4-yl)methyl (2-(2,6-dioxopiperidin-3-yl)-1-oxoisoindolin-4-yl)carbamate] to `CCNC(=O)c1nnc(-c2cc(C(C)C)c(O)cc2O)n1-c1ccc(CN2CCC(C(=O)N3CCC(OC(=O)Nc4cccc5c4CN(C4CCC(=O)NC4=O)C5=O)CC3)CC2)cc1` (stereo not drawn) [SDC-TRAP-0123, 1-(1-(4-(3-(2,4-Dihydroxy-5-isopropylphenyl)-5-(ethylcarbamoyl)-4H-1,2,4-triazol-4-yl)benzyl)piperidine-4-carbonyl)piperidin-4-yl (2-(2,6-dioxopiperidin-3-yl)-1-oxoisoindolin-4-yl)carbamate], the “% Remaining (1 h)” value falls from 112% to 95.6%.

Going from `CCc1c2c(nc3ccc(OS(=O)(=O)c4ccc(C(=O)N5CCC(CCn6ccc7cc(-n8c(O)nnc8-c8cc(C(C)C)c(O)cc8O)ccc76)CC5)cc4)cc13)-c1cc3c(c(=O)n1C2)COC(=O)C3(O)CC` (stereo not drawn) [SDC-TRAP-0390, 4,11-diethyl-4-hydroxy-3,14-dioxo-3,4,12,14-tetrahydro-1H-pyrano[3′,4′:6,7]indolizino[1,2-b]quinolin-9-yl 4-(4-(2-(5-(3-(2,4-dihydroxy-5-isopropylphenyl)-5-hydroxy-4H-1,2,4-triazol-4-yl)-1H-indol-1-yl)ethyl)piperidine-1-carbonyl)benzenesulfonate] to `CCNC(=O)c1nnc(-c2cc(C(C)C)c(O)cc2O)n1-c1ccc2c(c1)CN(C(=O)c1ccc(S(=O)(=O)Oc3ccc4nc5c(c(CC)c4c3)Cn3c-5cc4c(c3=O)COC(=O)C4(O)CC)cc1)C2` (stereo not drawn) [SDC-TRAP-0393, 4,11-diethyl-4-hydroxy-3,14-dioxo-3,4,12,14-tetrahydro-1H-pyrano[3′,4′:6,7]indolizino[1,2-b]quinolin-9-yl 4-(5-(3-(2,4-dihydroxy-5-isopropylphenyl)-5-(ethylcarbamoyl)-4H-1,2,4-triazol-4-yl)isoindoline-2-carbonyl)benzenesulfonate], the “% Remaining (1 h)” value falls from 92.5% to 47.8%.

Going from `CC(C)c1cc(-c2nnc(O)n2-c2ccc(CN3CCN(c4cnc(C(=O)Nc5cccc6c5CN(C5CCC(=O)NC5=O)C6=O)cn4)CC3)c(F)c2)c(O)cc1O` (stereo not drawn) [SDC-TRAP-0170, 5-(4-(4-(3-(2,4-dihydroxy-5-isopropylphenyl)-5-hydroxy-4H-1,2,4-triazol-4-yl)-2-fluorobenzyl)piperazin-1-yl)-N-(2-(2,6-dioxopiperidin-3-yl)-1-oxoisoindolin-4-yl)pyrazine-2-carboxamide] to `CC(C)c1cc(-c2nnc(O)n2-c2ccc(CC(=O)N(C)CCOC(=O)Nc3cccc4c3CN(C3CCC(=O)NC3=O)C4=O)cc2)c(O)cc1O` (stereo not drawn) [SDC-TRAP-0127, 2-(2-(4-(3-(2,4-dihydroxy-5-isopropylphenyl)-5-hydroxy-4H-1,2,4-triazol-4-yl)phenyl)-N-methylacetamido)ethyl(2-(2,6-dioxopiperidin-3-yl)-1-oxoisoindolin-4-yl)carbamate], the “% Remaining (1 h)” value falls from 94.1% to 87.3%.

Compared with `CC(C)c1cc(-c2nnc(O)n2-c2ccc3c(ccn3CCCC3CCN(C(=O)c4ncn5c(=O)n(C)nnc45)CC3)c2)c(O)cc1O` [SDC-TRAP-0345, 8-(4-(3-(5-(3-(2,4-dihydroxy-5-isopropylphenyl)-5-hydroxy-4H-1,2,4-triazol-4-yl)-1H-indol-1-yl)propyl)piperidine-1-carbonyl)-3-methylimidazo[5,1-d][1,2,3,5]tetrazin-4(3H)-one], `COc1ccc(-c2cnoc2-c2cc(OC)c(OC)c(OC)c2)cc1OC(=O)N1CCN(c2ccc(-n3c(O)nnc3-c3cc(C(C)C)c(O)cc3O)cc2)CC1` [SDC-TRAP-0099, 2-methoxy-5-(5-(3,4,5-trimethoxyphenyl)isoxazol-4-yl)phenyl-4-(4-(3-(2,4-dihydroxy-5-isopropylphenyl)-5-hydroxy-4H-1,2,4-triazol-4-yl)phenyl) piperazine-1-carboxylate] is higher in “% Remaining (1 h)” value: 63.8% for the first, 95.2% for the second.

First: CCNC(=O)c1nnc(-c2cc(C(C)C)c(O)cc2O)n1-c1ccc(CN2CCC(C(=O)N3CCC[C@H]3C(=O)Nc3cccc4c3CN(C3CCC(=O)NC3=O)C4=O)CC2)cc1 (stereo partly drawn) [SDC-TRAP-0164, 5-(2,4-dihydroxy-5-isopropylphenyl)-4-(4-((4-((2S)-2-((2-(2,6-dioxopiperidin-3-yl)-1-oxoisoindolin-4-yl)carbamoyl)pyrrolidine-1-carbonyl)piperidin-1-yl)methyl)phenyl)-N-ethyl-4H-1,2,4-triazole-3-carboxamide]
Second: CCNC(=O)c1nnc(-c2cc(C(C)C)c(O)cc2O)n1-c1ccc(Oc2ccc(C(=O)N3CCC(COC(=O)Nc4cccc5c4CN(C4CCC(=O)NC4=O)C5=O)CC3)cc2)cc1 (stereo not drawn) [SDC-TRAP-0125, (1-(4-(4-(3-(2,4-Dihydroxy-5-isopropylphenyl)-5-(ethylcarbamoyl)-4H-1,2,4-triazol-4-yl)phenoxy)benzoyl)piperidin-4-yl)methyl (2-(2,6-dioxopiperidin-3-yl)-1-oxoisoindolin-4-yl)carbamate]
The “% Remaining (1 h)” value of the first is lower: 98.0% for the first, 99.4% for the second.

Compared with `CCNC(=O)c1nnc(-c2cc(C(C)C)c(O)cc2O)n1-c1ccc(CN2CCC(C(=O)N3CCC(n4cc(-c5cnc(N)c(O[C@H](C)c6c(Cl)ccc(F)c6Cl)c5)cn4)CC3)CC2)cc1` [SDC-TRAP-0134, (R)-4-(4-((4-(4-(4-(6-amino-5-(1-(2,6-dichloro-3-fluorophenyl)ethoxy)pyridin-3-yl)-1H-pyrazol-1-yl)piperidine-1-carbonyl)piperidin-1-yl)methyl)phenyl)-5-(2,4-dihydroxy-5-isopropylphenyl)-N-ethyl-4H-1,2,4-triazole-3-carboxamide], `CC(C)c1cc(-c2nnc(O)n2-c2ccc(CN3CCN(C(=O)O[C@H]4CC[C@@]5(C)C(=CC[C@@H]6[C@@H]5CC[C@]5(C)C(c7cccnc7)=CC[C@@H]65)C4)CC3)cc2)c(O)cc1O` [SDC-TRAP-0150, (3S,8R,9S,10R,13S,14S)-10,13-dimethyl-17-(pyridin-3-yl)-2,3,4,7,8,9,10,11,12,13,14,15-dodecahydro-1H-cyclopenta[a]phenanthren-3-yl 4-(4-(3-(2,4-dihydroxy-5-isopropylphenyl)-5-hydroxy-4H-1,2,4-triazol-4-yl)benzyl) piperazine-1-carboxylate] is lower in “% Remaining (1 h)” value: 108% for the first, 103% for the second.

With `CCNC(=O)c1nnc(-c2cc(C(C)C)c(O)cc2O)n1-c1ccc(Oc2ccc(C(=O)NC(Cc3ccccc3)C(=O)Nc3cc(-c4cnoc4-c4cc(OC)c(OC)c(OC)c4)ccc3OC)cc2)cc1` (stereo not drawn) [SDC-TRAP-0158] the “% Remaining (1 h)” value was 92.7%.

For `CCc1c2c(nc3ccc(O)cc13)-c1cc3c(c(=O)n1C2)COC(=O)C3(CC)OC(=O)N(C)CCCCN1CCN(Cc2ccc(-n3c(O)nnc3-c3cc(C(C)C)c(O)cc3O)cc2)CC1` (stereo not drawn) [SDC-TRAP-0055, 4,11-diethyl-9-hydroxy-3,14-dioxo-3,4,12,14-tetrahydro-1H-pyrano[3′,4′:6,7]indolizino[1,2-b]quinolin-4-yl (4-(4-(4-(3-(2,4-dihydroxy-5-isopropylphenyl)-5-hydroxy-4H-1,2,4-triazol-4-yl)benzyl)piperazin-1-yl)butyl)(methyl)carbamate], the “% Remaining (1 h, 37° C.)” value was 103%.

Same assay, conditions: mouse, plasma, 1 h, 10 μM

For `CC(C)c1cc(-c2nnc(O)n2-c2ccc(CN3CCN(C(=O)O[C@H]4CC[C@@]5(C)C(=CC[C@@H]6[C@@H]5CC[C@]5(C)C(c7cccnc7)=CC[C@@H]65)C4)CC3)cc2)c(O)cc1O` [SDC-TRAP-0150, (3S,8R,9S,10R,13S,14S)-10,13-dimethyl-17-(pyridin-3-yl)-2,3,4,7,8,9,10,11,12,13,14,15-dodecahydro-1H-cyclopenta[a]phenanthren-3-yl 4-(4-(3-(2,4-dihydroxy-5-isopropylphenyl)-5-hydroxy-4H-1,2,4-triazol-4-yl)benzyl) piperazine-1-carboxylate], the “% Remaining (1 h)” value was 103%.

Source: patent publication US10828315B2 (Madrigal Pharmaceuticals, Inc., priority 2013, dated 2020)
